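Compound exposure: 48 hours, 5 concentrations, 96-well plates. Abbreviation: GI50, concentration required for 50% inhibition of growth. TGI denotes the concentration required for complete inhibition of growth.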 Some results are limits rather than exact numbers.

Some test systems named below: A498 renal; ACHN renal; HCT-116 colon; HCT-15 colon; MDA-MB-435; NCI/ADR-RES ovarian; OVCAR-3 ovarian; OVCAR-8 ovarian; PC-3 prostate; SN12C renal.
Test in all cases: NCI tumour cell line growth inhibition, 48 h

Take `CC[C@@H](C(=O)[C@H](C)[C@H](O)[C@@H](C)[C@H]1O[C@H]([C@@H](CC)C(=O)O)CC[C@H]1C)C1O[C@]2(C=C[C@@H](O)[C@]3(CC[C@@](C)([C@H]4CC[C@](O)(CC)[C@H](C)O4)O3)O2)[C@H](C)C[C@@H]1C` (stereo not given in full): the GI50 is 0.044 µM with A498 renal; 0.77 µM in the experiment with ACHN renal; 0.722 µM in the experiment on HCT-116 colon; 0.639 µM in the experiment with HCT-15 colon; 1.08 µM in the experiment with MDA-MB-435; 0.562 µM with NCI/ADR-RES ovarian. Moreover, the GI50 is 0.0842 µM in the experiment on OVCAR-3 ovarian, 1.6 µM in the experiment on OVCAR-8 ovarian, 0.0692 µM in the experiment with PC-3 prostate and 0.159 µM in the experiment on SN12C renal. Also, the TGI in the experiment on A498 renal was 0.48 µM; with ACHN renal it was 40.2 µM; with HCT-116 colon, 35.7 µM; in the experiment on HCT-15 colon, 26.5 µM; with MDA-MB-435, 2.56 µM; in the experiment with NCI/ADR-RES ovarian it was over 68.2 µM. The TGI in the experiment on OVCAR-3 ovarian was 18.8 µM; in the experiment on OVCAR-8 ovarian, over 100 µM; with PC-3 prostate it was 49 µM; in the experiment with SN12C renal, 16.4 µM.
On to `CCOC(=O)c1ccc2c(c1)nc(/C=C/c1ccc(Cl)cc1)n2-c1cc(C(C)(C)C)[nH]n1`, for which the GI50 in the experiment with A498 renal is 3.03 µM; in the experiment on ACHN renal, 2.03 µM; with HCT-116 colon, 3.42 µM; in the experiment with HCT-15 colon, 4.26 µM; with MDA-MB-435, 10.5 µM; in the experiment with NCI/ADR-RES ovarian it was 10.1 µM. The GI50 with OVCAR-3 ovarian was 2.86 µM; in the experiment with OVCAR-8 ovarian, 5.31 µM; with PC-3 prostate it was 5.85 µM; in the experiment on SN12C renal it was 7.3 µM. In addition, the TGI was 41.7 µM in the experiment with A498 renal; 5.75 µM in the experiment with ACHN renal; 12.4 µM in the experiment with HCT-116 colon; over 100 µM in the experiment with HCT-15 colon; over 100 µM in the experiment on MDA-MB-435; over 100 µM with NCI/ADR-RES ovarian. The TGI in the experiment with OVCAR-3 ovarian came out at 8.26 µM; in the experiment on OVCAR-8 ovarian it was 33.9 µM; in the experiment on PC-3 prostate it was 47 µM; in the experiment with SN12C renal it was 81 µM.
For `NS(=O)(=O)c1ccc(NCc2cnc3ccccc3n2)cc1`, the TGI with A498 renal, in the experiment on ACHN renal, in the experiment with HCT-116 colon, in the experiment with HCT-15 colon, with MDA-MB-435 and in the experiment on NCI/ADR-RES ovarian was over 100 µM each time. Moreover, the TGI with OVCAR-3 ovarian, with OVCAR-8 ovarian, in the experiment on PC-3 prostate and in the experiment with SN12C renal was over 100 µM each time.
`O=c1c2c(c3ccccc3n1-c1ccccc1)NC(=S)NC2c1ccc(Cl)cc1` (stereo not given): the GI50 in the experiment on A498 renal is 2.92 µM; with ACHN renal, 3.92 µM; with HCT-116 colon, 1.96 µM; with HCT-15 colon it was 2.1 µM; with MDA-MB-435, 3.27 µM; in the experiment on NCI/ADR-RES ovarian it was 10.1 µM. Further, the GI50 in the experiment on OVCAR-3 ovarian is 2.86 µM; in the experiment with OVCAR-8 ovarian, 4.01 µM; with PC-3 prostate, 2.68 µM; with SN12C renal, 3.83 µM. Moreover, the TGI in the experiment with A498 renal was 12.5 µM; in the experiment with ACHN renal, over 100 µM; in the experiment on HCT-116 colon, 7.32 µM; in the experiment with HCT-15 colon, 26.8 µM; in the experiment with MDA-MB-435 it was 31 µM; in the experiment on NCI/ADR-RES ovarian, over 100 µM. In addition, the TGI with OVCAR-3 ovarian was 15.6 µM; in the experiment with OVCAR-8 ovarian, over 100 µM; in the experiment on PC-3 prostate it was over 100 µM; in the experiment with SN12C renal, over 100 µM.
Turning to `O=[N+]([O-])c1ccc(Sc2nc(Cl)nc(NC3CCCC3)n2)cc1`, the GI50 was over 10 µM in the experiment on A498 renal; over 10 µM in the experiment with ACHN renal; 4.83 µM in the experiment on HCT-116 colon; over 10 µM in the experiment with HCT-15 colon; over 10 µM with MDA-MB-435; over 10 µM with NCI/ADR-RES ovarian. In addition, the GI50 with OVCAR-3 ovarian, in the experiment with OVCAR-8 ovarian, in the experiment with PC-3 prostate and in the experiment on SN12C renal was over 10 µM in each case. Further, the TGI in the experiment on A498 renal, in the experiment with ACHN renal, in the experiment on HCT-116 colon, in the experiment on HCT-15 colon, in the experiment on MDA-MB-435 and with NCI/ADR-RES ovarian was over 10 µM each time. Besides, the TGI with OVCAR-3 ovarian, with OVCAR-8 ovarian, in the experiment on PC-3 prostate and in the experiment on SN12C renal was over 10 µM throughout.
Regarding `Cc1cccc2nc3cccc(C(=O)NCCNCCNCCNC(=O)c4cccc5nc6cccc(C)c6nc45)c3nc12`, the GI50 in the experiment with A498 renal is under 0.01 µM; with ACHN renal it was under 0.01 µM; in the experiment on HCT-116 colon, under 0.01 µM; in the experiment with HCT-15 colon it was 0.0268 µM; in the experiment on MDA-MB-435, under 0.01 µM; in the experiment with NCI/ADR-RES ovarian, 0.296 µM. Moreover, the GI50 in the experiment with OVCAR-3 ovarian was under 0.01 µM; in the experiment on OVCAR-8 ovarian, under 0.01 µM; in the experiment on PC-3 prostate it was under 0.0164 µM; with SN12C renal it was 0.0489 µM. Further, the TGI was 0.363 µM with A498 renal; 10.9 µM in the experiment on ACHN renal; over 35.8 µM with HCT-116 colon; over 100 µM in the experiment on HCT-15 colon; 1.41 µM in the experiment with MDA-MB-435; over 100 µM in the experiment with NCI/ADR-RES ovarian. Moreover, the TGI in the experiment with OVCAR-3 ovarian is 2.91 µM; in the experiment on OVCAR-8 ovarian, 1.14 µM; with PC-3 prostate, 4.63 µM; in the experiment on SN12C renal, 14.1 µM.
Turning to `CCCCCCC/C=C/[C@H]1O[C@]2(O)C(=O)C=C3C[C@@H](O[C@@H]4O[C@H](CO)[C@@H](O)C(O)[C@@H]4O)C[C@@H]3[C@H]2C=C1C` (stereo not given in full), the GI50 in the experiment with A498 renal was 4.41 µM; in the experiment with ACHN renal, 1.13 µM; in the experiment with HCT-116 colon, 0.95 µM; in the experiment with HCT-15 colon it was 1.04 µM; with MDA-MB-435, 1.21 µM; with NCI/ADR-RES ovarian, 1.26 µM. In addition, the GI50 was 1.5 µM in the experiment on OVCAR-3 ovarian, 1.01 µM in the experiment with OVCAR-8 ovarian, 1.56 µM in the experiment on PC-3 prostate and 2.8 µM in the experiment on SN12C renal. In addition, the TGI in the experiment with A498 renal worked out at 9.13 µM; in the experiment on ACHN renal it was 4.28 µM; in the experiment with HCT-116 colon it was 3.64 µM; in the experiment with HCT-15 colon, 4.59 µM; in the experiment with MDA-MB-435, 5.69 µM; in the experiment with NCI/ADR-RES ovarian, 14 µM. Further, the TGI in the experiment on OVCAR-3 ovarian stood at 5.09 µM; in the experiment on OVCAR-8 ovarian, 3.92 µM; with PC-3 prostate, 11.7 µM; in the experiment with SN12C renal it was 10.7 µM.

The values above are taken from PubChem BioAssay (NCI).
